Experimental data as given in patent US5441947A, “Methods of inhibiting vascular restenosis” (Eli Lilly and Company, priority 1993, dated 1995).
Several values for one entry are separate records, joined by “and”; a condition that tells them apart may be missing. Equal values may be shown once.

Test system: smooth muscle cell chemotaxis
Assay: smooth muscle cell chemotaxis (96 well chemotaxis chamber, PDGF-BB as inducer)
Format: cell-based
Conditions: four hours; for Degree of Cell Migration: absorbance; for IC50: 4 h, PDGF-BB 10 ng/ml as inducer, 37° C., read-out: half maximal inhibiting concentrations (IC50) to inhibit smooth muscle cell chemotaxis
Protocol: Compounds of the invention were tested for impact on smooth muscle cell chemotaxis using a model AB96 Neuro Probe® 96 well chemotaxis chaser. […] This chamber is available from Neuro Probe, Inc., P.O. Box 400, Cabin John, Md.
The chamber consists of a top plate, a bottom plate, a gasket and a polyvinyl pyrrolidone-free polycarbonate filter. […] The 8 μm pore filter is soaked in 0.5N acetic acid overnight and coated with collagen at 100 μg/ml in 0.1N acetic acid for 2 days. The filter is then dried in a hood. The filter is then installed on the bottom plate, followed by the gasket. The top plate is then placed on the gasket, forming the top wells. In the top wells, smooth muscle cells are placed with the compounds to be tested at specified concentrations in around 225 μl volume. The smooth muscle cells are plated at a density of 0.5×10^6 cells/mi. The chamber is incubated at 37° C., 5% CO2 for four hours, and at the end of this time the upper well-cells are scraped off. The lower well cells are fixed, stained, and the absorbance is read.

[1] = 0.1 μm compound, PDGF-BB 10 ng/ml
[2] = 10 μm compound, PDGF-BB 10 ng/ml
[3] = 0.03 μM compound, PDGF-BB 10 ng/ml
[4] = 0.3 μm compound, PDGF-BB 10 ng/ml

| Molecule | IC50 [nM] | Degree of Cell Migration [1] | also measured |
| --- | --- | --- | --- |
| COc1cc2c(c(OC)c1OC)-c1ccc(OC)c(=O)cc1[C@@H](NC(C)=O)CC2 [Colchicine, reference compound] | – | – | Degree of Cell Migration (1 μm compound, PDGF-BB 10 ng/ml): 0.000 |
| COC[C@H]1OC(=O)c2coc3c2[C@@]1(C)C1=CC[C@]2(C)C(=O)CC[C@H]2C1C3=O (stereo partly drawn) [II, Δ9,11-dehydrodesacetoxywortmannin] | 200 | – | – |
| COCC1OC(=O)c2coc3c2C1(C)C1=C(C3=O)C2CCC(O)C2(C)CC1OC(C)=O (stereo not drawn) [IIIA, 17α-Dihydrowortmannin] | 20 | -0.010 | Degree of Cell Migration (0.01 μm compound, PDGF-BB 10 ng/ml): 0.033 |
| Cc1c2c(c(O)c3occ(C(=O)O)c13)[C@@H]1CCC(=O)[C@@]1(C)C=C2 [IVa, opened A-ring acid of wortmannin] | > 10000 | – | Degree of Cell Migration [2]: 0.04 |
| COC(=O)c1coc2c(O)c3c(c(C)c12)C=C[C@]1(C)C(=O)CC[C@@H]31 [IVb, opened A-ring methyl ester of wortmannin] | 10000 | – | Degree of Cell Migration [2]: 0.026 |
| COCC1OC(=O)c2coc3c2C1(C)C1=C(C3=O)C2CCC(=O)C2(C)CC1OC(C)=O (stereo not drawn) [Ia, wortmannin] | 30 | 0.006 | Degree of Cell Migration [3]: 0.020; Degree of Cell Migration [4]: -0.001 |
| COC[C@H]1OC(=O)c2coc3c2[C@@]1(C)C1=C(C3=O)[C@@H]2CCC(=O)[C@@]2(C)CC1 [Ib, 11-desacetoxywortmannin] | 200 | 0.040 and 0.028 | Degree of Cell Migration [3]: 0.044 and 0.036; Degree of Cell Migration [4]: 0.015 |
| PDGF: PDGF-BB at 10 ng/ml as an inducer, or chemoattractant (protein, UniProt P01127 82-190, looked up) Platelet-derived growth …: SLGSLTIAEPAMIAECKTRTEVFEISRRLIDRTNANFLVWPPCVEVQRCSGCCNNRNVQCRPTQVQLRPVQVRKIEIVRKKPIFKKATVTLEDHLACKCETVAAARPVT | – | – | Degree of Cell Migration (PDGF 10 ng/ml alone (inducer control)): 0.046 |
